The source of these data is ChEMBL document CHEMBL4304837, “Discovery of Pyridazinone and Pyrazolo[1,5-a]pyridine Inhibitors of C-Terminal Src Kinase” (ACS Med Chem Lett, 2019).

Data set [1] can be described thus: Protein binding in human serum assessed as unbound fraction measured up to 5 hrs by LC-MS/MS analysis relative to control. The class given is ADME, cell-free.
Data set [2] in a line: Half life in human liver microsomes at 0.5 uM measured up to 45 mins by LC-MS/MS analysis. The class given is ADME, Microsome. In general terms: Microsomes from liver hold many membrane-bound enzymes, among them those of drug oxidation.
Data set [3] addresses T1, Tyrosine-protein kinase ZAP-70 (Homo sapiens) (UniProt P43403).
T1 sequence (whole entry): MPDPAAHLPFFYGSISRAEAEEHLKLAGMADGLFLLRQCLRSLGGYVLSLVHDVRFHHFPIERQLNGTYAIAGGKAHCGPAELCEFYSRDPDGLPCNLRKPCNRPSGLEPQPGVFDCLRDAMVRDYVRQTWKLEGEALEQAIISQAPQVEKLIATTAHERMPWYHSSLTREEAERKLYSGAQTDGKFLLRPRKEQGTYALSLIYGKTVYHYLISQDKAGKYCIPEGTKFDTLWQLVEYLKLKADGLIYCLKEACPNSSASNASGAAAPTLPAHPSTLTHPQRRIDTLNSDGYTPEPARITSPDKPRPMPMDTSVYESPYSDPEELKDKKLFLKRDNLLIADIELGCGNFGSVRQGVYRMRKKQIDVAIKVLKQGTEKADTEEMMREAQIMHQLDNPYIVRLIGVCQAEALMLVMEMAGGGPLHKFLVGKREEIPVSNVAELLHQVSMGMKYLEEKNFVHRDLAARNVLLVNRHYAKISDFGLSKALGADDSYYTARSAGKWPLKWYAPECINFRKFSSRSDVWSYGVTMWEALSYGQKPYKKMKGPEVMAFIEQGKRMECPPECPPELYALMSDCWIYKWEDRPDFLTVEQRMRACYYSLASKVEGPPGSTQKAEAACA
Nature of the data set: Effect on ZAP70 phosphorylation in human Jurkat cells pre-incubated for 30 mins followed by anti-CD3/CD28 stimulation measured after 10 mins relative to control. The class given is cell-based.

Data set [4] is described as follows: Metabolic stability in mouse liver microsomes assessed as compound remaining at 0.5 uM measured after 10 mins in presence of NADPH by LC-MS/MS analysis. The data set is classed as ADME, Microsome. The following applies: read-out: Stability.
Data set [5] can be described thus: Protein binding in mouse serum assessed as unbound fraction measured up to 5 hrs by LC-MS/MS analysis relative to control. The data set is classed as ADME, cell-free.
A short description of data set [6]: Metabolic stability in human liver microsomes assessed as compound remaining at 0.5 uM measured after 10 mins in presence of NADPH by LC-MS/MS analysis. The class given is ADME, Microsome. The note with it: read-out: Stability.
Data set [7] in a line: Half life in mouse liver microsomes at 0.5 uM measured up to 45 mins by LC-MS/MS analysis. The class given is ADME, Microsome.
A short description of data set [8]: Drug concentration in C57BL/6 mouse at 100 mg/kg, po after 24 hrs. The class given is ADME, organism-based. The following applies: in vivo, read-out: Ct.
Data set [9] is described as follows: Half life in C57BL/6 mouse at 100 mg/kg, po. The class given is ADME, organism-based. The note with it: in vivo.
Data set [10] is described as follows: Cmax in C57BL/6 mouse at 100 mg/kg, po. The class given is ADME, organism-based. More on the design: dose 100 mg/kg, route oral. The note with it: in vivo.
The nature of data set [11]: Tmax in C57BL/6 mouse at 100 mg/kg, po. The data set is classed as ADME, organism-based. The following applies: in vivo.
Data set [12] is described as follows: Plasma concentration in C57BL/6 mouse at 100 mg/kg, po. The class given is ADME, organism-based. The following applies: in vivo.
Data set [13] can be described thus: AUC in C57BL/6 mouse at 100 mg/kg, po. The class given is ADME, organism-based. The note with it: in vivo.
The species named for data set [14] is Homo sapiens. Nature of the data set: Immunostimulatory activity in human CD4-positive T cells assessed as increase in OKT-induced increase in CD4-positive T cells proliferation pre incubated for 15 mins followed by co-culture with CHO cells over-expressing OKT and measured after 72 hrs by MTS assay. The data set is classed as functional, cell-based.
Data set [15] is described as follows: Effect on human CD4-positive T cell activation assessed as increase in IL-2 secretion preincubated for 15 mins followed by co-culture with CHO cells and measured after 48 hrs by AlphaLisa assay. Background: Alpha assays give light when donor and acceptor beads are brought close together.
The species named for data set [16] is Homo sapiens. Nature of the data set: Immunostimulatory activity in human CD4-positive T cells assessed as increase in OKT-induced IL-2 secretion pre incubated for 15 mins followed by co-culture with CHO cells over-expressing OKT and measured after 48 hrs by AlphaLisa assay. The data set is classed as functional, cell-based.
A short description of data set [17]: Effect on human CD4-positive T cell activation assessed as increase in increase in CD4-positive T cells proliferation preincubated for 15 mins followed by co-culture with CHO cells and measured after 48 hrs by AlphaLisa assay. The class given is cell-based.
Data set [18] has as its target Tyrosine-protein kinase Lck (Homo sapiens, UniProt P06239). Nature of the data set: Inhibition of His-tagged/GST-tagged LCK (unknown origin) incubated for 1 hr by TR-FRET assay.
Data set [19] can be described thus: Drug metabolism in mouse liver microsomes assessed as oxidation at […] group by soft spot analysis. The class given is ADME, Microsome.
The nature of data set [20]: Drug metabolism in mouse liver microsomes assessed as oxidation at indazole ring by soft spot analysis. The data set is classed as ADME, Microsome.

Tyrosine-protein kinase Lck, sequence (P06239 whole entry): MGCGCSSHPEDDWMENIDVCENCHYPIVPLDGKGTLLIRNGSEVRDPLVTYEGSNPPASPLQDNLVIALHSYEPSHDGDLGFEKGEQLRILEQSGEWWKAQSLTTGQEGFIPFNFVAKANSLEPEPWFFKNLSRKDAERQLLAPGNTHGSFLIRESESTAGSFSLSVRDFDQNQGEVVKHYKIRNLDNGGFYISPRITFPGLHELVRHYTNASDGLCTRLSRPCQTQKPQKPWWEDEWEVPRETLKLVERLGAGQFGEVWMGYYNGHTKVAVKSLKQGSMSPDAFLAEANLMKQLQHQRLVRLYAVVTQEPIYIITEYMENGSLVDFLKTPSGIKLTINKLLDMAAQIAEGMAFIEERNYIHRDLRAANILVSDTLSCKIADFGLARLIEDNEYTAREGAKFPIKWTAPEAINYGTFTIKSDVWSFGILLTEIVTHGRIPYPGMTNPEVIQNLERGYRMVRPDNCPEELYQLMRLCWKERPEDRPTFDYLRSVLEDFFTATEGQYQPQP

The half-life is the time needed for the level to fall by half in the phase considered. By Emax is commonly meant the size of the effect at its maximum, as opposed to the concentration needed. With `CCc1cc(NC(=O)c2nn(C3CCN(C(=O)NC(C)(C)C)CC3)c3ccccc23)ccc1-c1n[nH]c(=O)c(C)c1C`, the Fu is given as 0.5% in data set [1] and 1% in data set [5]. For the same compound, the figures for the half-life at 0.5 µM in data set [2] and in data set [7] were 0.233 h and 0.2 h, respectively. In data set [3], this compound returned an Emax of 270%. The values for the remaining at 10 min, 0.5 µM in data set [4] and in data set [6] were 59% and 61%, respectively.
As to `COc1ccc2c(C(=O)Nc3ccc(NC(=O)c4nn(C5CCN(C(=O)NC(C)(C)C)CC5)c5ccc(F)cc45)cc3Cl)cnn2c1`, the Fu is given as 0.4% in data set [1] and less than 0.2% in data set [5]. Besides, the values for the half-life at 0.5 µM in data set [2] and in [7] were more than 2 h and 1.47 h, respectively. Further, in data set [3], the Emax was found to be 210%. The figures for the remaining at 10 min, 0.5 µM in [4] and in [6] were 99% and 85%, respectively.
A word on the Cmax: it is the highest concentration seen after dosing. Broadly, the Tmax is the time from dosing to the highest level. As a reminder, the AUC is concentration integrated over time. On to `CCc1cc(NC(=O)c2nn(C3CCN(C(=O)NC(C)(C)C)CC3)c3ccccc23)ccc1-c1n[nH]c(=O)cc1C`, for which the Fu worked out at 0.4% in [1] and 0.9% in data set [5]. In addition, the half-life at 0.5 µM amounted to 0.167 h in data set [2] and 0.517 h in data set [7]. For the same compound, the concentration at 24 h in data set [8] came to 0.001 µM. The half-life in data set [9] is 1.9 h. The compound also displayed a maximum response (Emax) in [3] of 350%. Further, the figures for the remaining at 10 min, 0.5 µM in [4] and in data set [6] were 78% and 53%, respectively. For the same compound, in data set [10], the peak level (Cmax) was 17.3 µM. Also, in data set [11], the Tmax is 0.3 h. The concentration in data set [12] stood at 8.7 µM. Further, in [13], the AUC came out at 51.5 µM·h.
On to `COc1ccc2c(C(=O)Nc3ccc(NC(=O)c4nn(C)c5ccccc45)cc3C)cnn2c1`, for which the remaining at 10 min, 0.5 µM in [4] came to 59%.
For the compound `CC(C)(C)NC(=O)N1CCC(n2nc(C(=O)Nc3ccc(NC(=O)c4cnn5ccccc45)cc3)c3ccccc32)CC1`, the Emax in data set [3] turned out to be 240%. For the same compound, the remaining at 10 min, 0.5 µM was determined as 21% in data set [4] and 71% in data set [6].
For the compound `COc1ccc2c(C(=O)Nc3ccc(NC(=O)c4nn(C5CCN(C(=O)CC(C)(C)C#N)CC5)c5ccc(F)cc45)cc3Cl)cnn2c1`, the Fu is less than 0.1% in [1] and 0.3% in data set [5]. Also, the half-life at 0.5 µM in data set [2] and in data set [7] was more than 2 h each time. Also, the concentration at 24 h in data set [8] came out at 1.3 µM. Moreover, in data set [9], the half-life is 5.3 h. The Emax in data set [3] amounted to 360%. Besides, the Activity result in data set [14] was “Dose-dependent effect”; in data set [15] it was “Non-Toxic”; in [16] it was “Dose-dependent effect”; in [17], “Non-Toxic”. Also, the remaining at 10 min, 0.5 µM turned out to be 100% in data set [4] and 91% in [6]. In addition, the concentration in data set [10] peaked (Cmax) at 19.3 µM. Moreover, in [11], the Tmax stood at 7 h. The same compound displayed an AUC in data set [13] of 222 µM·h.
As to `Cc1cc(=O)[nH]nc1-c1ccc(NC(=O)c2nn(C3CCN(C(=O)NC(C)(C)C)CC3)c3ccccc23)cc1Cl`, the maximum response (Emax) in data set [3] was 350%. In addition, the remaining at 10 min, 0.5 µM in data set [4] was found to be 9%; in data set [6], 68%.
The corresponding values for `CC(C)(C)NC(=O)N1CCC(n2nc(C(=O)Nc3ccc(-c4ccc(=O)[nH]n4)c(Cl)c3)c3ccccc32)CC1` are 180%, 15% and 65%.
Take `CC(C)(C)NC(=O)N1CCC(n2nc(C(=O)Nc3ccc(NC(=O)c4cnn5ccccc45)c(Cl)c3)c3ccccc32)CC1`: in data set [3], the Emax worked out at 250%. Besides, the remaining at 10 min, 0.5 µM in data set [4] came to 24%; in data set [6], 84%.
Usually IC50 stands for the concentration needed to halve the response being measured. Low values mean higher potency, high ones lower potency. The compound `CC(C)(C)NC(=O)N1CC(Cn2nc(C(=O)Nc3ccc(-c4ccc(=O)[nH]n4)c(Cl)c3)c3ccccc32)C1` displayed an Emax in data set [3] of 73%. The results for the remaining at 10 min, 0.5 µM in data set [4] and in data set [6] were 33% and 2%, respectively. In [18], the IC50 is more than 50 µM.
As for `CCc1cc(NC(=O)c2nn(C3CCN(C(=O)NC(C)(C)C)CC3)c3ccccc23)ccc1-c1cc(C)c(=O)[nH]n1`, the Emax in data set [3] came to 280%. The remaining at 10 min, 0.5 µM was found to be 1% in data set [4] and 72% in data set [6].
Regarding `Cc1cc(NC(=O)c2nn(C3CCN(C(=O)CC(C)(C)C#N)CC3)c3ccccc23)ccc1NC(=O)c1cnn2ccccc12`, the Drug metabolism entry in [19] was “Metabolite_Detected”. The same compound gave an Emax in [3] of 370%. Also, the remaining at 10 min, 0.5 µM in data set [4] came to 9%; in [6] it was 85%.
For the compound `Cc1cc(NC(=O)c2nn(C3CCN(C(=O)NC(C)(C)C)CC3)c3ccccc23)ccc1NC(=O)c1cnn2ccccc12`, the Emax in data set [3] came to 190%. For the same compound, the remaining at 10 min, 0.5 µM was determined as 10% in [4] and 72% in [6]. For the same compound, the Drug metabolism result in data set [20] is “Metabolite_Detected”.
In data set [3], `COc1ccc2c(C(=O)Nc3ccc(NC(=O)c4nn(C5CCN(C(=O)NC(C)(C)C)CC5)c5ccccc45)cc3C)cnn2c1` had an Emax of 220%. In addition, the values for the remaining at 10 min, 0.5 µM in data set [4] and in [6] were 2% and 80%, respectively.
